In ChEMBL document CHEMBL1133133, “Difluoroketones as inhibitors of matrix metalloprotease-13” (Bioorg Med Chem Lett, 2000):

These compounds were tested against Collagenase 3 (Homo sapiens, UniProt P45452) (assay: Inhibition of Matrix metalloprotease-13).

IC50 | Compound
5.1 µM | CNC(=O)C(NC(=O)C(CCc1ccccc1)CC(=O)C(F)(F)c1ccc(Cc2ccccc2)cc1)C(C)(C)C (centres undefined)
0.014 µM | CNC(=O)[C@@H](NC(=O)C(CCc1ccccc1)CP(=O)(O)Cc1ccc(Cc2ccccc2)cc1)C(C)(C)C (some centres undefined)
> 30 µM | CNC(=O)C(NC(=O)C(CCc1ccccc1)CC(O)C(F)(F)c1ccc(Cc2ccccc2)cc1)C(C)(C)C (centres undefined)

The next lines start with the compound.

Compound | IC50
C=CCCC(=O)C(F)(F)c1ccc(Cc2ccccc2)cc1 | > 30 µM
O=C(C(CCc1ccccc1)CC(=O)C(F)(F)c1ccc(Cc2ccccc2)cc1)N1CCCCC1 (centres undefined) | 6.1 µM
CNC(=O)C(NC(=O)CCC(=O)C(F)(F)c1ccc(Cc2ccccc2)cc1)C(C)(C)C (centres undefined) | 12 µM
C=CC(CCc1ccccc1)CC(O)C(F)(F)c1ccc(Cc2ccccc2)cc1 (centres undefined) | 27 µM
O=C(CCCCc1ccccc1)C(F)(F)c1ccc(Cc2ccccc2)cc1 | > 30 µM
C=CC(CCc1ccccc1)CC(=O)C(F)(F)c1ccc(Cc2ccccc2)cc1 (centres undefined) | 0.29 µM
